Assays:
Assay type in all cases: cell-based
[1] = tested on: 60 human cancer cell lines; assay: NCI60 one-dose screen, overall mean; conditions: mean over all 60 cell lines, read-out: Mean growth percent
Description: The screening results are presented in the Supplementary Materials (Table S1), where the cytotoxicity was determined for the 10 µM concentration. […] The negative numbers indicate significant decreases in the cell number. […] Compared to the reference chrysin (2), all phosphonium hybrids (3a–h) had significant antiproliferative activities. […] At the same time, it should be noted that more than 60% average reduction was also obtained in the case of the other examined conjugates (3a–h).
A detailed description of the NCI screening procedures, including the one-dose and five-dose tests, can be found in the Supplementary Materials, on the website of NCI [39], and in our previous work.
A detailed description of the NCI screening procedures can also be found on the website of NCI [39], and in our […]
All candidates were examined at first at a single high dose (10 μM) in the full NCI60 cell panel. The value reported for the one-dose test is growth relative to the no-drug control and relative to the time zero number of cells. This made possible the disclosure of both growth inhibition (numbers between 0 and 100) and lethality (numbers less than 0). For example, a value of 100 means no growth inhibition. A value of 20 would mean 80% growth inhibition. A value of 0 means no net growth over the course of the analysis. A value of −20 would mean 20% lethality. A value of −100 means all cells are dead. […]
concentration levels. The human tumor cell lines of the cancer screening panel were grown in RPMI 1640 medium containing 5% fetal bovine serum and 2 mM l-glutamine. Characteristically, cells were injected in 96-well microtiter plates in 0.1 mL at plating densities ranging from 5000 to 40,000 cells/well, depending on the doubling time of individual cell lines. After cell inoculation, the microtiter plates were incubated at 37 °C, 5% carbon dioxide, 95% air, and 100% relative humidity for 24 hours before the addition of tested compounds. After 24 hours, 2 plates of each cell line were fixed in situ with Cl3COOH (TCA), to represent a measurement of the cell population for each cell line at the time of drug addition (tz). Tested compounds were solubilized in DMSO at 400-fold the desired final maximum test concentration and stored frozen before application. In the course of the drug addition, an aliquot of frozen concentrate was thawed and diluted to twice the desired final maximum test concentration with a complete medium containing 50 μg mL−1 gentamicin. Additional four, 10-fold or ½ log serial dilutions were produced to furnish a total of five drug concentrations plus control. Aliquots of 0.1 mL of these different drug dilutions were added to the appropriate microtiter wells already containing 0.1 mL of medium, resulting in the required final drug concentrations.
Following drug addition, the plates were incubated at 37 °C, 5% carbon dioxide, 95% air, and 100% relative humidity for an additional 48 hours. For adherent cells, the test was finished by the addition of cold Cl3COOH. Cells were fixed in situ by the addition of 50 μL of cold 50% (w/v) Cl3COOH, and incubated at 4 °C for 1 hour. The supernatant was discarded, and the plates were washed with H2O (5×) and dried in air. Sulforhodamine B (SRB) solution (0.1 mL) at 0.4% (w/v) in 1% CH3COOH was added to each well, and plates were incubated at RT for 10 min. After staining, the unbound dye was removed by washing five times with 1% CH3COOH, and the plates were dried in the air. The bound stain is afterward solubilized with a 10 mM trizma base, and the absorbance is read on an automated plate reader at λ = 515 nm. Utilizing the seven absorbance measurements [time zero (tz), control growth (c), and test growth in the presence of the drug at the five concentration levels (ti)], the percentage growth was determined at each of the drug concentration levels. Growth inhibition (%) was calculated as:
[(ti − tz)/(c − tz)] × 100, for concentrations where ti ≥ tz (1) […]

[2] = tested on: TK-10; assay: NCI60 one-dose screen; conditions: Homo sapiens; TK-10, 10 μM; read-out: Growth percent
How it was run: (§1)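 Readings at 515 nm of bound sulforhodamine B gave percent growth versus a no-drug control and the time-zero population, where −100 means all cells dead. Cells had been exposed to a 10 µM single dose for 48 h.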

[3] = tested on: NCI-H23; assay: NCI60 one-dose screen; conditions: Homo sapiens; NCI-H23, 10 μM; read-out: Growth percent
How it was run: as §1

[4] = tested on: SK-MEL-5; assay: NCI60 one-dose screen; conditions: Homo sapiens; SK-MEL-5, 10 μM; read-out: Growth percent
How it was run: as §1

[5] = tested on: U251; assay: NCI60 one-dose screen; conditions: Homo sapiens, U-251; U251, 10 μM; read-out: Growth percent
How it was run: as §1

[6] = tested on: UACC-257; assay: NCI60 one-dose screen; conditions: Homo sapiens; UACC-257, 10 μM; read-out: Growth percent
How it was run: as §1

[7] = tested on: NCI-H226; assay: NCI60 one-dose screen; conditions: Homo sapiens; NCI-H226, 10 μM; read-out: Growth percent
How it was run: as §1

[8] = tested on: SK-OV-3; assay: NCI60 one-dose screen; conditions: Homo sapiens; SK-OV-3, 10 μM; read-out: Growth percent
How it was run: as §1

[9] = tested on: HCT-15; assay: NCI60 one-dose screen; conditions: Homo sapiens; HCT-15, 10 μM; read-out: Growth percent
How it was run: as §1

[10] = tested on: SK-MEL-28; assay: NCI60 one-dose screen; conditions: Homo sapiens; SK-MEL-28, 10 μM; read-out: Growth percent
How it was run: as §1

[11] = tested on: BT-549; assay: NCI60 one-dose screen; conditions: Homo sapiens; BT-549, 10 μM; read-out: Growth percent
How it was run: as §1

[12] = tested on: NCI-H460; assay: NCI60 one-dose screen; conditions: Homo sapiens; NCI-H460, 10 μM; read-out: Growth percent
How it was run: as §1

[13] = tested on: OVCAR-8; assay: NCI60 one-dose screen; conditions: Homo sapiens; OVCAR-8, 10 μM; read-out: Growth percent
How it was run: as §1

[14] = tested on: ACHN; assay: NCI60 one-dose screen; conditions: Homo sapiens, read-out: Growth percent
How it was run: as §1

Structure (SMILES)	activity at 10 µM [1] [%]	activity at 10 µM [2] [%]	activity at 10 µM [3] [%]	activity at 10 µM [4] [%]	activity at 10 µM [5] [%]	activity at 10 µM [6] [%]	activity at 10 µM [7] [%]	activity at 10 µM [8] [%]	activity at 10 µM [9] [%]	activity at 10 µM [10] [%]	activity at 10 µM [11] [%]	activity at 10 µM [12] [%]	activity at 10 µM [13] [%]	activity at 10 µM [14] [%]
O=c1cc(-c2ccccc2)oc2cc(OCCCC[P+](c3ccccc3)(c3ccccc3)c3ccccc3)cc(O)c12 [3a]	-74.3	-81.8	-93	-98.4	-57.4	-91	-29	-83.4	-94.2	-98.5	-83	-75.8	-61.1	-100
Cc1ccc([P+](CCCCOc2cc(O)c3c(=O)cc(-c4ccccc4)oc3c2)(c2ccc(C)cc2)c2ccc(C)cc2)cc1 [3b]	-69.9	-79.3	-90.9	-96.5	-50	-72.2	-50.2	-75.3	-88	-85.3	-19	-47.8	-30.1	-92.8
COc1ccc([P+](CCCCOc2cc(O)c3c(=O)cc(-c4ccccc4)oc3c2)(c2ccc(OC)cc2)c2ccc(OC)cc2)cc1 [3c]	-68.3	-87.1	-77	-93.9	-92.6	-94.7	-67.6	-77.7	-64.2	-44.5	-82.6	2.18	-90.6	-63.5
O=c1cc(-c2ccccc2)oc2cc(OCCCC[P+](c3ccc(F)cc3)(c3ccc(F)cc3)c3ccc(F)cc3)cc(O)c12 [3d]	-69.5	-84.8	-93	-99.2	-40.7	-82.1	-56.9	-88.2	-48.6	-92	-76	-47.4	-45.6	-85.4

— publication PMC12652692, “Synthesis and In Vitro Anticancer Evaluation of Novel Phosphonium Derivatives of Chrysin” (International Journal of Molecular Sciences, 2025)
